Measured values as given in patent US11324237B2, “Tasteful natural sweetener and flavor” (EPC Natural Products Co., Ltd., priority 2018, dated 2022).
“Also recorded” adds a separate entry of the source.

Tests used:
[1] = relative to sugar; cited from earlier work
[2] = Stevia-derived MRPs with NHDC and thaumatin, alone and in Redbull sugar free (Example 240); format: in vivo, human; conditions: added before heating to stevia derived MRP; 150 μl in 100 ml Redbull sugar free
Method: 150 μl of the each sample was added to 100 ml Redbull sugar free and mixed. The taste profiles of the samples were compared. As a control, a RedBull sugar free sample without the addition of SteviAroma was used.
Before tasting the tasters discussed the upcoming series of samples and tasted samples with predetermined attributes with varying intensities to find a commonality in description. Four trained tasters blind taste tested independently all samples of a series. They were allowed to re-taste and made notes for the sensory attributes perceived including the relative intensity.
In the last step the attributes noted were discussed openly to find an acceptable description. In case that more than 1 taster disagreed with the description, the tasting was repeated.

[3] = Sensory evaluation of combinations of EPCalin, GSGs and SGs and NHDC in water (Example 234); format: in vivo, human; conditions: 4.5 ppm Thaumatin and/or 50 ppm GSGs and SGs
Method: 4.5 ppm Thaumatin (equivalent to 10 ppm EPCalin) were dissolved in water. Increasing amounts of NHDC (1-5 ppm) were added to the solution and the sensory properties were evaluated.
50 ppm (GSGs and SGs) were dissolved in water. Increasing amounts of NHDC (1-5 ppm) were added to the solution and the sensory properties were evaluated.
50 ppm (GSGs and SGs) and 4.5 ppm Thaumatin (equivalent to 10 ppm EPCalin) were dissolved in water. Increasing amounts of NHDC (1-5 ppm) were added to the solution and the sensory properties were evaluated.
Sweetness Intensity was Rated on 5-Point Scale

[4] = Assay to test Reducing Power (iron-III reduction test for anti-oxidant potential); conditions: combinations of amino acids and Reb-A, 10 mM, pH 7.8, 100° C., diluted 1:10 (FIG. 49)
Method: 0.2 M Sodium phosphate buffer, pH=6.6; 500 mg Potassium ferric(III)cyanide/50 mL water, 10% Trichloroacetic acid; 20 mg Iron-III-Chloride/20 mL water; Calibration samples were prepared with Ascorbic acid in a concentration of 0-100 μg/mL 0.2 M Sodium phosphate buffer, pH=6.6 (freshly prepared); as negative control sample water was used.
Samples in aqueous solution were used as such or diluted in 0.2 M Sodium phosphate buffer, pH=6.6.
A 1 mL sample (or calibration standard) was mixed with 1 mL 0.2 M Sodium phosphate buffer, pH=6.6 and 1 mL Potassium ferricyanide solution. The sample was incubated and protected from light at 50° C. for 20 min.
To the solution was added 1 mL Trichloroacetic acid with thorough mixing.
A 1 mL of the mixture was diluted with 1 mL H2O and 0.2 mL Iron-Ill-chloride and reacted for 10 minutes; The absorbance was then determined at 700 nm against H2O.
10 mM of amino acid and/or 10 mM sugar were dissolved in 10 ml 0.1 mM KH2PO4-buffer, pH=7.8. […]
1 ml sample (or calibration standard) solution) was mixed with 0.2 M Sodium phosphate buffer (pH=6.6) and 1 ml Potassium ferric(III)cyanide solution in water (1% w/v) and incubated at 50° C. for 20 minutes. […] The sample was incubated for 10 minutes and absorbance read at 700 nm against a water control. […]
Quantification was performed by linear regression of calibration test results for ascorbic acid. […]

[5] = Assay to test DPPH radical-scavenging activity; conditions: combinations of amino acids and Reb-A, 10 mM, pH 7.8, 100° C., diluted 1:10 (FIG. 50)
Method: 1 mg 1,1-Diphenyl-2-picrylhydrazyl radical (DPPH)/ml ethanol, dilution to assay concentration were prepared in ethanol (40 μg/mL); Calibration samples were prepared with Ascorbic acid in a concentration of 0-10 μg/mL; as a negative control sample, water was used.
Samples in aqueous solution were used as such or diluted with water.
A 0.1 ml sample (or calibration standard) was mixed with 3.9 ml solution of DPPH° (100 μMolar) and reacted while protected from light at room temperature for 30 min. Absorbance was determined at 517 nm against ethanol.
10 mM of amino acid and/or 10 mM sugar were dissolved in 10 ml 0.1 mM KH2PO4-buffer, pH=7.8.
The samples were kept at 100° C. in sealed glass vials (Pyrex 15 ml with screw caps) for 0 (before reaction), 2.5 or 5.0 hours. Thereafter the samples were transferred to an ice water bath and cooled down to room temperature. These samples were diluted 1:10 and used for the test assay for anti-oxidant potential. […]
0.2 ml sample (or calibration standard) solution was mixed with 0.2 ml solution of DPPH® (0.1 mM) and 3.6 ml methanol. […] After 3 minutes the absorbance at 517 nm was obtained against ethanol. Quantification was performed by linear regression of calibration test results for ascorbic acid. […]

## OC[C@@H](O)[C@@H](O)[C@H](O)[C@H](O)CO [D-mannitol]
[1]
  natural sweetness: 0.55-0.65 times of that of sugar

## COc1ccc(CCC(=O)c2c(O)cc(O[C@@H]3O[C@H](CO)[C@@H](O)[C@H](O)[C@H]3O[C@@H]3O[C@@H](C)[C@H](O)[C@@H](O)[C@H]3O)cc2O)cc1O [NHDC, Neohesperidin dihydrochalcone]
[2]
  taste profile in sugarfree beverage: improved the mouth-feel and harmony of taste impression yielding a substantially improved taste profile
[3]
  sensory properties of combinations with NHDC: long lasting lingering; also recorded: boosts the lingering

## C[C@H](CC[C@@H](O[C@@H]1O[C@H](CO)[C@@H](O)[C@H](O)[C@H]1O[C@@H]1O[C@H](CO)[C@@H](O)[C@H](O)[C@H]1O)C(C)(C)O)[C@H]1CC[C@@]2(C)[C@H]3CC=C4[C@@H](CC[C@H](O[C@@H]5O[C@H](CO[C@@H]6O[C@H](CO)[C@@H](O)[C@H](O)[C@H]6O)[C@@H](O)[C@H](O)[C@H]5O)C4(C)C)[C@]3(C)[C@H](O)C[C@]12C [mogroside IV]
[1]
  natural sweetness: 126 times of that of sugar

## C[C@H](CC[C@@H](O[C@@H]1O[C@H](CO[C@@H]2O[C@H](CO)[C@@H](O)[C@H](O)[C@H]2O)[C@@H](O)[C@H](O)[C@H]1O[C@@H]1O[C@H](CO)[C@@H](O)[C@H](O)[C@H]1O)C(C)(C)O)[C@H]1CC[C@@]2(C)[C@@H]3CC=C4[C@@H](CC[C@H](O[C@@H]5O[C@H](CO[C@@H]6O[C@H](CO)[C@@H](O)[C@H](O)[C@H]6O)[C@@H](O)[C@H](O)[C@H]5O)C4(C)C)[C@]3(C)[C@H](O)C[C@]12C [mogroside V]
[1]
  natural sweetness: 256-344 times of that of sugar

## C=C1C[C@@]23CC[C@H]4[C@@](C)(CCC[C@@]4(C)C(=O)O[C@@H]4O[C@H](CO)[C@@H](O)[C@H](O)[C@H]4O)[C@@H]2CC[C@]1(O[C@@H]1O[C@H](CO)[C@@H](O)[C@H](O[C@@H]2O[C@H](CO)[C@@H](O)[C@H](O)[C@H]2O)[C@H]1O[C@@H]1O[C@H](CO)[C@@H](O)[C@H](O)[C@H]1O)C3 [Reb-A, Rebaudioside A]
[4]
  active iron-III reduction (anti-oxidant properties): substantial anti-oxidant properties
[5]
  radical scavenging properties (anti-oxidant properties): substantial anti-oxidant properties
